Holding throughout (assay): Test A preemergence
Type in all cases: in vivo

Test [1] has as its system giant foxtail (Setaria faberii). Particulars: Setaria faberi, pre-emergence, 240 h; for pest or weed control at 500 g/ha: 500 g ai/ha; for pest or weed control at 125 g/ha: 125 g ai/ha. The method, boiled down:
(§1)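 Each rating is a visual injury score from 0 to 100 given about 10 d after treatment, judged against untreated controls kept alongside in the greenhouse. In loam soil–sand blend, seeds got a preemergence directed soil spray, while postemergence plants were 2 to 10 cm tall at spraying.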

Test [2] has as its system pigweed (Amaranthus retroflexus). As to conditions: Amaranthus retroflexus, pre-emergence, 240 h; for pest or weed control at 500 g/ha: 500 g ai/ha; for pest or weed control at 125 g/ha: 125 g ai/ha.
In test [3] the test system is ryegrass, Italian (Italian ryegrass, Lolium multiflorum). Particulars: Lolium multiflorum, pre-emergence, 240 h; for pest or weed control at 500 g/ha: 500 g ai/ha; for pest or weed control at 125 g/ha: 125 g ai/ha. An outline of the steps:
as §1

The test system of test [4] is barnyardgrass (Echinochloa crus-galli). Particulars: Echinochloa crus-galli, pre-emergence, 240 h; for pest or weed control at 500 g/ha: 500 g ai/ha; for pest or weed control at 125 g/ha: 125 g ai/ha. The method, boiled down: as §1
Test [5] relates to Kochia (Kochia scoparia). As to conditions: Bassia scoparia, pre-emergence, 240 h; for pest or weed control at 500 g/ha: 500 g ai/ha; for pest or weed control at 125 g/ha: 125 g ai/ha. An outline of the steps:
as §1

Test [6] has as its system ragweed (common ragweed, Ambrosia elatior). As to conditions: Ambrosia artemisiifolia, pre-emergence, 240 h; for pest or weed control at 500 g/ha: 500 g ai/ha; for pest or weed control at 125 g/ha: 125 g ai/ha. The method, boiled down: as §1
Where [7] appears, read: preemergence, 0 to 100 scale (0 no effect, 100 complete control), read-out: Plant response rating, Foxtail, Giant.
The mark [8] stands for this setting: Preemergence, 0 to 100 scale (0 no effect, 100 complete control), read-out: Plant response rating, Foxtail, Giant.
Where [9] appears, read: preemergence, 0 to 100 scale (0 no effect, 100 complete control), read-out: Plant response rating, Pigweed.
Setting [10] is: Preemergence, 0 to 100 scale (0 no effect, 100 complete control), read-out: Plant response rating, Pigweed.
The mark [11] stands for this setting: preemergence, 0 to 100 scale (0 no effect, 100 complete control), read-out: Plant response rating, Ryegrass, Italian.
The mark [12] stands for this setting: Preemergence, 0 to 100 scale (0 no effect, 100 complete control), read-out: Plant response rating, Ryegrass, Italian.
Setting [13] is: preemergence, 0 to 100 scale (0 no effect, 100 complete control), read-out: Plant response rating, Barnyardgrass.
Where [14] appears, read: Preemergence, 0 to 100 scale (0 no effect, 100 complete control), read-out: Plant response rating, Barnyardgrass.
[15] abbreviates: preemergence, 0 to 100 scale (0 no effect, 100 complete control), read-out: Plant response rating, Kochia.
[16] abbreviates: Preemergence, 0 to 100 scale (0 no effect, 100 complete control), read-out: Plant response rating, Kochia.
Setting [17] is: preemergence, 0 to 100 scale (0 no effect, 100 complete control), read-out: Plant response rating, Ragweed.
Setting [18] is: Preemergence, 0 to 100 scale (0 no effect, 100 complete control), read-out: Plant response rating, Ragweed.
Setting [19] is: preemergence, visual injury rating, 0 to 100 scale where 0 is no effect and 100 is complete control, approximately 10 d, read-out: Foxtail, Giant plant response rating.
The mark [20] stands for this setting: preemergence, 0 to 100 scale where 0 is no effect and 100 is complete control, read-out: Foxtail, Giant plant response rating.
Setting [21] is: preemergence, visual injury rating, 0 to 100 scale where 0 is no effect and 100 is complete control, approximately 10 d, read-out: Pigweed plant response rating.
The mark [22] stands for this setting: preemergence, 0 to 100 scale where 0 is no effect and 100 is complete control, read-out: Pigweed plant response rating.
Setting [23] is: preemergence, visual injury rating, 0 to 100 scale where 0 is no effect and 100 is complete control, approximately 10 d, read-out: Ryegrass, Italian plant response rating.
Setting [24] is: preemergence, 0 to 100 scale where 0 is no effect and 100 is complete control, read-out: Ryegrass, Italian plant response rating.
Setting [25] is: preemergence, visual injury rating, 0 to 100 scale where 0 is no effect and 100 is complete control, approximately 10 d, read-out: Barnyardgrass plant response rating.
The mark [26] stands for this setting: preemergence, 0 to 100 scale where 0 is no effect and 100 is complete control, read-out: Barnyardgrass plant response rating.
The mark [27] stands for this setting: preemergence, visual injury rating, 0 to 100 scale where 0 is no effect and 100 is complete control, approximately 10 d, read-out: Kochia plant response rating.
[28] abbreviates: preemergence, 0 to 100 scale where 0 is no effect and 100 is complete control, read-out: Kochia plant response rating.
The mark [29] stands for this setting: preemergence, visual injury rating, 0 to 100 scale where 0 is no effect and 100 is complete control, approximately 10 d, read-out: Ragweed plant response rating.
Where [30] appears, read: preemergence, 0 to 100 scale where 0 is no effect and 100 is complete control, read-out: Ragweed plant response rating.

Where two headings read alike, the source gives them in different places.

Turning to `CN1C[C@H](c2ccc(C(F)F)cc2)[C@@H](C(=O)Nc2cccc(F)c2F)C1=O` [Compound 1383], the pest or weed control at 500 g/ha in test [1] (setting [7]) was 100%; in test [2] (setting [9]), 80%; in test [3] (setting [11]) it was 70%; in test [4] (setting [13]), 100%; in test [5] (setting [15]) it was 90%; in test [6] (setting [17]) it was 80%. Besides, the pest or weed control at 125 g/ha in test [1] (setting [8]) was 100%; in test [2] (setting [10]), 80%; in test [3] (setting [12]) it was 70%; in test [4] (setting [14]), 100%; in test [5] (setting [16]), 90%; in test [6] (setting [18]) it was 80%.

For the molecule `O=C1NC[C@H](c2cccc(C(F)(F)F)c2)C1C(=O)Nc1ccccc1CO` (stereo partly drawn) [Compound 1244], the pest or weed control at 125 g/ha was 90% in test [1] (setting [19]); 0% in test [2] (setting [21]); 0% in test [3] (setting [23]); 80% in test [4] (setting [25]); 0% in test [5] (setting [27]); 0% in test [6] (setting [29]). The pest or weed control at 500 g/ha in test [1] (setting [20]) stood at 90%; in test [2] (setting [22]) it was 0%; in test [3] (setting [24]), 50%; in test [4] (setting [26]), 90%; in test [5] (setting [28]), 0%; in test [6] (setting [30]), 0%.

For `CO[C@]1(C(=O)Nc2cccc(F)c2F)C(=O)N(C)C[C@@H]1c1ccc(C(F)(F)F)cc1` (racemic) [Compound 1334], the pest or weed control at 500 g/ha in test [1] (setting [7]) is 80%; in test [2] (setting [9]), 30%; in test [3] (setting [11]), 20%; in test [4] (setting [13]), 80%; in test [5] (setting [15]) it was 20%; in test [6] (setting [17]) it was 30%. In addition, the pest or weed control at 125 g/ha in test [1] (setting [8]) was 40%; in test [2] (setting [10]) it was 20%; in test [3] (setting [12]) it was 0%; in test [4] (setting [14]) it was 20%; in test [5] (setting [16]), 0%; in test [6] (setting [18]), 0%.

Take `COc1cc([C@H]2CN(C)C(=O)[C@@H]2C(=O)Nc2cccc(F)c2C)ccc1F` [Compound 1300]: the pest or weed control at 125 g/ha in test [1] (setting [19]) was determined as 90%; in test [2] (setting [21]), 0%; in test [3] (setting [23]) it was 0%; in test [4] (setting [25]), 90%; in test [5] (setting [27]), 0%; in test [6] (setting [29]) it was 0%. Also, the pest or weed control at 500 g/ha in test [1] (setting [20]) was 90%; in test [2] (setting [22]), 40%; in test [3] (setting [24]) it was 60%; in test [4] (setting [26]), 90%; in test [5] (setting [28]) it was 60%; in test [6] (setting [30]) it was 80%.

Consider `O=C1NC[C@H](c2ccc(C3CC3)cc2)[C@H]1C(=O)Nc1ccccc1F` [Compound 727], for which the pest or weed control at 125 g/ha in test [1] (preemergence, visual rating after approx. 10 d, 0 to 100 scale where 0 is no effect and 100 is complete control, read-out: Plant response rating, Foxtail, Giant) was found to be 80%; in test [2] (preemergence, visual rating after approx. 10 d, 0 to 100 scale where 0 is no effect and 100 is complete control, read-out: Plant response rating, Pigweed) it was 0%; in test [3] (preemergence, visual rating after approx. 10 d, 0 to 100 scale where 0 is no effect and 100 is complete control, read-out: Plant response rating, Ryegrass, Italian) it was 0%; in test [4] (preemergence, visual rating after approx. 10 d, 0 to 100 scale where 0 is no effect and 100 is complete control, read-out: Plant response rating, Barnyardgrass), 70%; in test [5] (preemergence, visual rating after approx. 10 d, 0 to 100 scale where 0 is no effect and 100 is complete control, read-out: Plant response rating, Kochia) it was 0%; in test [6] (preemergence, visual rating after approx. 10 d, 0 to 100 scale where 0 is no effect and 100 is complete control, read-out: Plant response rating, Ragweed) it was 0%. Also, the pest or weed control at 500 g/ha amounted to 90% in test [1] (preemergence, 0 to 100 scale, 0 = no effect, 100 = complete control, read-out: Plant response rating, Foxtail, Giant); 0% in test [2] (preemergence, 0 to 100 scale, 0 = no effect, 100 = complete control, read-out: Plant response rating, Pigweed); 0% in test [3] (preemergence, 0 to 100 scale, 0 = no effect, 100 = complete control, read-out: Plant response rating, Ryegrass, Italian); 90% in test [4] (preemergence, 0 to 100 scale, 0 = no effect, 100 = complete control, read-out: Plant response rating, Barnyardgrass); 0% in test [5] (preemergence, 0 to 100 scale, 0 = no effect, 100 = complete control, read-out: Plant response rating, Kochia); 0% in test [6] (preemergence, 0 to 100 scale, 0 = no effect, 100 = complete control, read-out: Plant response rating, Ragweed).
